Laboratory results taken from US8153368B2, “Four-jointed box (FJX1) in cancer diagnosis and treatment” (Vanderbilt University, priority 2007, dated 2012).

Legend:
[1] = test system: FJX1 mRNA; assay: qRT-PCR of FJX1 expression in rectal cancer biopsies before and after celecoxib; type: in vivo, human; details: range in the four of five rectal cancers that were down-regulated; pre vs post treatment
[2] = test system: FJX1 mRNA in SW480 colon cancer cells; assay: qRT-PCR of FJX1 mRNA after γ-secretase inhibition in SW480 cells; type: cell-based, human; details: 200 nM DAPT vs vehicle (DMSO), 16 hrs
Description: FIG. 3—Decreased FJX1 expression following inhibition of […] (DAPT) in SW480 colon cancer cells. Cells were grown to 70-80% confluence using complete RPMI and then treated with 200 nM of DAPT or vehicle. The RNA was harvested 16 hrs later using an RNeasy™ kit (Qiagen). qRT-PCR was performed as outlined in the text. Gene expression values were normalized to a housekeeping gene (PMM1) for the final analysis. The values are expressed as fold-change in comparison to normal colonic mucosal levels.
(§1) FIG. 19A-B—Inhibition of Notch signaling causes a reduction in fjx1 expression in colon cancer cells. Fjx1 expression levels as determined by qRT-PCR in (FIG. 19A) SW480 and (FIG. 19B) SW620 colon cancer cells following treatment with the γ-secretase inhibitor DAPT.
Since four-jointed in Drosophila is regulated by Notch signaling, and mouse fjx1 expression appears to be a target of Notch regulation, the inventors predicted that inhibition of Notch signaling would inhibit FJX1 expression in colon cancer cells. A reliable pharmacological method of inhibiting Notch signaling is to block release of the Notch intracellular domain through inhibition of γ-secretase activity (van Es et al., 2005). Therefore, the inventors used a selective inhibitor of γ-secretase, DAPT, or vehicle (DMSO) to treat SW480 and SW620 cells for 16 hrs and determined the effect on levels of FJX1. […]

[3] = test system: Notch pathway; assay: Notch-responsive reporter (4xCSL-Luc) in HEK293T cells; type: cell-based, human; details: transient transfection, DAPT 200 nM or dnMAM
Description: FIGS. 18A-B—Experimental inactivation of Notch pathway signaling in HEK293 cells. Transient transfections of cells was carried out using a Notch promoter reporter plasmid (4xCSL) and a control reporter (pRL-tk). The Relative Light Units (4xCSL/pRL-tk) are plotted for each treatment group. (FIG. 18A) Notch activity in HEK293 cells following treatment with NICD, NICD+200 nM DAPT, LNG (negative control), LNG+200 nM DAPT and 200 nM DAPT. (FIG. 18B) Notch promoter activity in HEK293 cells following treatment with dnMAM, NICD, NICD+dnMAM, LNG and LNG+dnMAM.
FJX1 expression in colon cancer cells. In preliminary studies examining the role of fjx1 as it relates to Notch signaling in CRC, the inventors have assessed expression of fjx1 mRNA in several human colon cancer cell lines and found abundant expression of fjx1 in both SW480 and SW620 cells (in comparison with colon adenomas), and less abundant expression in HT29 cells as determined by qRT-PCR (data not shown). Since four-jointed in Drosophila is regulated by Notch signaling, and mouse fjx1 expression appears to be a target of Notch regulation, the inventors predicted that inhibition of Notch signaling would inhibit fjx1 expression in colon cancer cells. A reliable pharmacological method of inhibiting Notch signaling is to block release of the Notch intracellular domain through inhibition of γ-secretase activity (van Es, 2005). […]

[4] = test system: FJX1 mRNA in SW620 colon cancer cells; assay: qRT-PCR of FJX1 mRNA after γ-secretase inhibition in SW620 cells; type: cell-based, human; details: 200 nM DAPT vs vehicle (DMSO), 16 hrs
Excerpt: as §1
Since four-jointed in Drosophila is regulated by Notch signaling, and mouse fjx1 expression appears to be a target of Notch regulation, the inventors predicted that inhibition of Notch signaling would inhibit FJX1 expression in colon cancer cells. A reliable pharmacological method of inhibiting Notch signaling is to block release of the Notch intracellular domain through inhibition of γ-secretase activity (van Es et al., 2005). Therefore, the inventors used a selective inhibitor of γ-secretase, DAPT, or vehicle (DMSO) to treat SW480 and SW620 cells for 16 hrs and determined the effect on levels of FJX1.
FJX1 expression in colon cancer cells. In preliminary studies examining the role of fjx1 as it relates to Notch signaling in CRC, the inventors have assessed expression of fjx1 mRNA in several human colon cancer cell lines and found abundant expression of fjx1 in both SW480 and SW620 cells (in comparison with colon adenomas), and less abundant expression in HT29 cells as determined by qRT-PCR (data not shown). […]

[5] = test system: Notch pathway; assay: Notch-responsive reporter (4xCSL-Luc) in SW480 cells; type: cell-based, human; details: data not shown
Excerpt: FJX1 expression in colon cancer cells. In preliminary studies examining the role of fjx1 as it relates to Notch signaling in CRC, the inventors have assessed expression of fjx1 mRNA in several human colon cancer cell lines and found abundant expression of fjx1 in both SW480 and SW620 cells (in comparison with colon adenomas), and less abundant expression in HT29 cells as determined by qRT-PCR (data not shown). Since four-jointed in Drosophila is regulated by Notch signaling, and mouse fjx1 expression appears to be a target of Notch regulation, the inventors predicted that inhibition of Notch signaling would inhibit fjx1 expression in colon cancer cells. A reliable pharmacological method of inhibiting Notch signaling is to block release of the Notch intracellular domain through inhibition of γ-secretase activity (van Es, 2005). A complementary genetic method of Notch inhibition is through the use of a truncated, dominant negative construct of Mastermind or “dnMAM” (pCS2-Myc 1-30aa Mastermind a gift from K. A. Jones, Ph.D., the Salk Institute, La Jolla, Calif.) (Fryer, 2002). The dnMAM is mutated such that it cannot form a functional RBPJ complex and therefore, cannot activate the Notch responsive promoter. […] The inventors have also used DAPT treatments of SW480 and SW620 cells (200 nM for 16 hrs) to block expression of fjx1 in response to Notch signaling (FIG. 19).

Structure (SMILES)	fjx1 mRNA decrease after Celecoxib treatment (qRT-PCR) [1]	levels of FJX1 mRNA [2]	Notch promoter reporter activity (4xCSL/pRL-tk relative light units) [3]	levels of FJX1 mRNA [4]	Notch promoter reporter activity (4xCSL-Luc) [5]
Cc1ccc(-c2cc(C(F)(F)F)nn2-c2ccc(S(N)(=O)=O)cc2)cc1 [celecoxib]	2.5-17.5 fold decrease	–	–	–	–
C[C@H](NC(=O)Cc1cc(F)cc(F)c1)C(=O)N[C@H](C(=O)OC(C)(C)C)c1ccccc1 [DAPT]	–	reduced the levels of FJX1 mRNA	specific Notch pathway inhibition	reduced the levels of FJX1 mRNA	specific Notch pathway inhibition
